According to US6525200B1, “Multicyclic aromatic compounds and uses thereof” (Roche Diagnostics Corporation, priority 2000, dated 2003):
Counter-ions that a name gives are not always drawn. Like-named read-outs stand apart in the source and are kept apart here. Values belong to the compound of their own block, whether it stands above or below them.

Experiments:
[1] = in water; read-out: dissociation constant of the complex with methylguanidinium ion; cited from earlier work
[2] = water or aqueous medium; cited from earlier work
[3] = Fluorescence quenching of receptor on addition of N-methylguanidinium; format: binding; details: 30 μM receptor in distilled water, excitation 388 nm, 2 equivalents of guest
Protocol: UV-visible absorbance and fluorescence were examined. UV spectra were recorded on a Hewlett-Packard 8452A diode array UV-vis spectrophotometer, using a cell of 1 cm pathlength. Fluorescence spectra were recorded on a Photon Technology International QM-1 Steady state Fluorescence system. For UV-visible titrations stability constants (Ks) were calculated by fitting the data to the equation: Aobs=(εR[R]t+[R]t(εRG−εR)(Ks[G]t+Ks[R]t+1−sqrt((Ks[G]t+Ks[R]t+1)^2−4*[R]t Ks^2[G]t))/(2Ks[R]t))1 derived from Ks=[G][R]/[RG], [R]t=[R]+[RG], [G]t=[G]+[RG], and Aobs=(εR[R]+εRG[RG])1. The experimentally determined parameters are as follows: [R]t, the total concentration of a receptor; [G]t, the total concentration of a guest; Aobs, the observed absorbance; εR, the extinction coefficient of free receptor; 1, cell pathlength. […] For fluorescense titrations stability constants (Ks) were calculated by fitting as the data to the equation: Iobs=IR+(IRG−IR)(Ks[G]t+Ks[R]t+1−sqrt((Ks[G]t+Ks[R]t+1)^2−4*[R]tKs^2[G]t))/(2Ks[R]t) derived from Ks=[G][R]/[RG], [R]t=[R]+[RG], [G]t=[G]+[RG], and Iobs=IR+IRG. The experimentally determined parameters are as follows: [R]t, the total concentration of a receptor; [G]t, the total concentration of a guest; Iobs, the observed fluorescence intensity; IR, the fluorescence intensity of free receptor at a given concentration. […]

[4] = UV-visible titration of receptor with N-methylguanidine hydrochloride in distilled water; format: binding
Protocol: (§1) UV-visible absorbance and fluorescence were examined. UV spectra were recorded on a Hewlett-Packard 8452A diode array UV-vis spectrophotometer, using a cell of 1 cm pathlength. Fluorescence spectra were recorded on a Photon Technology International QM-1 Steady state Fluorescence system. For UV-visible titrations stability constants (Ks) were calculated by fitting the data to the equation: Aobs=(εR[R]t+[R]t(εRG−εR)(Ks[G]t+Ks[R]t+1−sqrt((Ks[G]t+Ks[R]t+1)^2−4*[R]t Ks^2[G]t))/(2Ks[R]t))1 derived from Ks=[G][R]/[RG], [R]t=[R]+[RG], [G]t=[G]+[RG], and Aobs=(εR[R]+εRG[RG])1. The experimentally determined parameters are as follows: [R]t, the total concentration of a receptor; [G]t, the total concentration of a guest; Aobs, the observed absorbance; εR, the extinction coefficient of free receptor; 1, cell pathlength. The fitted parameters: εRG, the extinction coefficient of a receptor complex with a guest, Ks, the stability constant. For fluorescense titrations stability constants (Ks) were calculated by fitting as the data to the equation: Iobs=IR+(IRG−IR)(Ks[G]t+Ks[R]t+1−sqrt((Ks[G]t+Ks[R]t+1)^2−4*[R]tKs^2[G]t))/(2Ks[R]t) derived from Ks=[G][R]/[RG], [R]t=[R]+[RG], [G]t=[G]+[RG], and Iobs=IR+IRG. The experimentally determined parameters are as follows: [R]t, the total concentration of a receptor; [G]t, the total concentration of a guest; Iobs, the observed fluorescence intensity; IR, the fluorescence intensity of free receptor at a given concentration. The fitted parameters: IRG, the fluorescence intensity of a receptor complex with aguest at a given concentration, Ks, the stability constant. The calculations were performed using software Sigma Plot 1.02 (Jandel Scientific) with tolerance value 0.000100. The goodness of fit was evaluated by means of the Student's Paired t-Test (P-value>0.05).
UV-visible titrations was performed by first preparaing a 30 μM receptor 5 (compound IA) stock solution in distilled water. […]
The following parameters were found from absorbance data measured at 410 nm: εR=6.50×10^3 cm^−1 M^−1, εRG=2.43×10^4 cm^−1 M^−1, Ks=1.0×10^5 M^−1.

[5] = Fluorescence complexation studies of receptors with urea; format: binding
Protocol: as §1
A fluorescence titration study was performed as follows: a stock solution of the receptor (compound IB) was prepared with distilled water. Using the equipment described in Example 6, an excitation wavelength of 384 nm was used to obtain the spectrum for the uncomplexed receptor. Thereafter, four (4) aliquots of a urea stock solution were added with fluorescence being measured after each addition. A composite spectrum is show in FIG. 8.
Fluorescence was measured for the stock receptor solution using an excitation wavelength of 384 nm with a peak emission being observed at 450 nm. The stock urea solution was then added and fluorescence was measured again. A composite spectrum is shown in FIG. 10, with curve (a) representing the receptor without urea and curve (b) representing the complexation of the receptor with urea.
Fluorescence was also measured using a 25 μM stock solution of the receptor in distilled water. […] A urea solution was prepared and added to the receptor solution to measure quenching due to complexation.
Fluorescence was measured for a 20 μM stock solution of compound ID in a 98:2 (v/v) DMSO:water solvent system. An excitation wavelength of 407 nm was used with a peak emission being observed at 450 nm. A 0.17 M urea solution was then added and fluorescence measured again. A composite spectrum is shown in FIG. 11, with curve (a) representing the receptor (i.e., compound ID) without urea and curve (b) representing the complexation of the receptor with urea. […]
Fluorescence was measured for a 20 μM stock solution of compound IE in a 1:1 (v/v) DMSO:CHCl3 solvent system. […] Twenty equivalents of urea were then added and fluorescence measured again. […]

[6] = in water, fluorescence quenching, read-out: Kd with urea

Structure (SMILES): O=C(O)c1ccc2c(n1)-c1nc3nc4c(cc3cc1CC2)CCc1ccc(C(=O)O)nc1-4 [Compound 3]
- Kd [1]: 4.3 mM
- solubility in water / aqueous medium [2]: soluble in water

Structure (SMILES): CCCCc1c2c(nc3c1CCc1cc4cc5c(nc4nc1-3)-c1nc3c(c(CCCC)c1CC5)CCc1cc4cccnc4nc1-3)-c1nc3ncccc3cc1CC2 [Compound 4]
- solubility in water / aqueous medium [2]: not soluble in water

- emission band at 410 nm, remaining share of original fluorescence intensity [3]: approximately 24%
- stability constant Ks of complex with N-methylguanidinium ([4]; 30 μM receptor in distilled water, absorbance at 410 nm): 100000 M⁻¹
- binds N-methylguanidinium more strongly than the arginine cork ([4]; in water): 430 times
- Kd ([4]; in water, correlated from Ks, read-out: Kd of complex with N-methylguanidinium): 0.01 mM
Structure (SMILES): O=C(O)c1ccc2c(n1)-c1nc3nc4c(cc3cc1CC2)CCc1cc2c(nc1-4)-c1nc3ncccc3cc1CC2 [Compound IA, 5,6,9,10,12,13-Hexahydro[1,10]phenanthrolino[2,3-b]pyrido[2′3′:2,3]quino[7,8-j][1,10]phenanthroline-2-carboxylic acid, potassium salt]

- Kd [5, 6]: < 17 mM
Structure (SMILES): Nc1ccc2cc3c(nc2n1)-c1nc2c(cc1CC3)CCc1cc3cc4c(nc3nc1-2)-c1nc(C(=O)O)ccc1CC4 [Compound IB, 17-Amino-5,6,9,10,12,13-hexahydro[1,10]phenanthrolino[2,3-b]pyrido[2′3′:2,3]quino[7,8-j][1,10]phenanthroline-2-carboxylic acid, potassium salt]

- Kd ([5]; in DMSO, 30 μM receptor, excitation 384 nm, read-out: Kd for urea): 33 mM
- Kd [5, 6]: 13 mM
Structure (SMILES): Nc1cccc(-c2ccc3c(n2)-c2nc4nc5c(cc4cc2CC3)CCc2ccc(C(=O)O)nc2-5)n1 [Compound IC, 5,6,9,10-Tetrahydro-13-(2-aminopyridin-6-yl)[1,10]phenanthrolino[2,3-b][1,10]phenanthroline-2-carboxylic acid]

- Kd ([5]; 98:2 (v/v) DMSO:water, 20 μM receptor, excitation 407 nm, read-out: Kd for urea): 50 mM
Structure (SMILES): O=C(O)c1ccc2c(n1)-c1nc3nc4c(cc3cc1CC2)CCc1ccc(-c2nc(O)cc(O)n2)nc1-4 [Compound ID, 5,6,9,10-Tetrahydro-13-(4,6-dihydroxypyrimidin-2-yl) [1,10]phenanthrolino [2,3-b][1,10]phenanthroline-2-carboxylic acid, potassium salt]

Structure (SMILES): COc1cc(N(C)C)c(OC)cc1CCNC(=O)c1ccc2c(n1)-c1nc3nc4c(cc3cc1CC2)CCc1ccc(C(=O)NCCNc2ccc3c5c(cccc25)C(=O)N(Cc2ccc(C(=O)OC(C)(C)C)cc2)C3=O)nc1-4 [Compound IE, 5,6,9,10-Tetrahydro[1,10]phenanthrolino[2,3-b][1,10]phenanthroline-2-(N-(4-aminoethyl-N′-(4-tert-butoxycarbonyltoluidyl)naphthyridine))carboxamide-13-(N-(2,5-dimethoxy-4-dimethylaminophenethyl))carboxamide]
- Kd ([5]; 1:1 (v/v) DMSO:CHCl3, 20 μM receptor, excitation 460 nm, read-out: Kd for urea): 16 mM
